Laboratory results reported in ChEMBL document CHEMBL4507268 (2021).

Tests used:
Settings in all cases: Compound concentration 1.0 uM
[1] = biological target: Dual specificity protein kinase CLK4 (Homo sapiens) (UniProt Q9HAZ1)
[2] = biological target: Mitogen-activated protein kinase 1 (Homo sapiens) (UniProt P28482)
[3] = biological target: Protein kinase C gamma type (Homo sapiens) (UniProt P05129)
[4] = biological target: PI3-kinase p110-delta/p85-alpha (Homo sapiens) (UniProt P27986+O00329)
[5] = biological target: Phosphatidylinositol 4,5-bisphosphate 3-kinase catalytic subunit gamma isoform (Homo sapiens) (UniProt P48736)
[6] = biological target: Protein kinase C alpha type (Homo sapiens) (UniProt P17252)
[7] = biological target: Serine/threonine-protein kinase SBK1 (Homo sapiens) (UniProt Q52WX2)
[8] = biological target: CDK7/Cyclin H/MNAT1 (Homo sapiens) (UniProt P51946+P50613+P51948)
[9] = biological target: Tyrosine-protein kinase Fyn (Homo sapiens) (UniProt P06241)
[10] = biological target: Eukaryotic elongation factor 2 kinase (Homo sapiens) (UniProt O00418)
[11] = biological target: T1, Serine/threonine-protein kinase D2 (Homo sapiens) (UniProt Q9BZL6)
T1 sequence (whole entry): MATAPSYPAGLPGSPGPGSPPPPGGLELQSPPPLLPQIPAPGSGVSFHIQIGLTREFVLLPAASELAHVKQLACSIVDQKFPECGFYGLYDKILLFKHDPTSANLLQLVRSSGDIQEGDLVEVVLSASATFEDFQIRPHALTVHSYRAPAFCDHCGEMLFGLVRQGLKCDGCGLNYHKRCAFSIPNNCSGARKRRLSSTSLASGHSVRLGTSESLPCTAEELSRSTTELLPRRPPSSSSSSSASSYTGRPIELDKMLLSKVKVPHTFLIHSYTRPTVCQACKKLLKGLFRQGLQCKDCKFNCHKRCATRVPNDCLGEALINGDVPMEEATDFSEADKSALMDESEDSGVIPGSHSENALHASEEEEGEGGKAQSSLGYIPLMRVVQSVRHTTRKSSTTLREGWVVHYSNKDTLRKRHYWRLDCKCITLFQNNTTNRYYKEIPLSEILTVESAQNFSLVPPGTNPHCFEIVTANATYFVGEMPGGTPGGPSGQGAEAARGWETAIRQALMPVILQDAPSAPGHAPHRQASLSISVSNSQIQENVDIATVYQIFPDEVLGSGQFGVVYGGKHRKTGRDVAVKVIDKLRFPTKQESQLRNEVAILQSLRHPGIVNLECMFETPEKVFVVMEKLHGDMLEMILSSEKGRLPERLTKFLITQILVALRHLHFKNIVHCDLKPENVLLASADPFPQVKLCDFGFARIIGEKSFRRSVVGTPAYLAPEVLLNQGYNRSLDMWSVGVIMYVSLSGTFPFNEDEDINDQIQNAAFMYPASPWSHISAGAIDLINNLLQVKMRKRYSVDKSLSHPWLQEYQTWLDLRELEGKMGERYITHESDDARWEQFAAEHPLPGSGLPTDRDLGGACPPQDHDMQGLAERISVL

[12] = biological target: MAP kinase-activated protein kinase 3 (Homo sapiens) (UniProt Q16644)
[13] = biological target: RAC-gamma serine/threonine-protein kinase (Homo sapiens) (UniProt Q9Y243)
[14] = biological target: Tyrosine-protein kinase JAK1 (Homo sapiens) (UniProt P23458)
[15] = biological target: Serine/threonine-protein kinase MRCK beta (Homo sapiens) (UniProt Q9Y5S2)
[16] = biological target: Cyclin-dependent kinase 5/CDK5 activator 1 (Homo sapiens) (UniProt Q00535+Q15078)
[17] = biological target: Receptor tyrosine-protein kinase erbB-4 (Homo sapiens) (UniProt Q15303)
[18] = biological target: T2, Tyrosine-protein kinase JAK3 (Homo sapiens) (UniProt P52333)
T2 sequence (whole entry): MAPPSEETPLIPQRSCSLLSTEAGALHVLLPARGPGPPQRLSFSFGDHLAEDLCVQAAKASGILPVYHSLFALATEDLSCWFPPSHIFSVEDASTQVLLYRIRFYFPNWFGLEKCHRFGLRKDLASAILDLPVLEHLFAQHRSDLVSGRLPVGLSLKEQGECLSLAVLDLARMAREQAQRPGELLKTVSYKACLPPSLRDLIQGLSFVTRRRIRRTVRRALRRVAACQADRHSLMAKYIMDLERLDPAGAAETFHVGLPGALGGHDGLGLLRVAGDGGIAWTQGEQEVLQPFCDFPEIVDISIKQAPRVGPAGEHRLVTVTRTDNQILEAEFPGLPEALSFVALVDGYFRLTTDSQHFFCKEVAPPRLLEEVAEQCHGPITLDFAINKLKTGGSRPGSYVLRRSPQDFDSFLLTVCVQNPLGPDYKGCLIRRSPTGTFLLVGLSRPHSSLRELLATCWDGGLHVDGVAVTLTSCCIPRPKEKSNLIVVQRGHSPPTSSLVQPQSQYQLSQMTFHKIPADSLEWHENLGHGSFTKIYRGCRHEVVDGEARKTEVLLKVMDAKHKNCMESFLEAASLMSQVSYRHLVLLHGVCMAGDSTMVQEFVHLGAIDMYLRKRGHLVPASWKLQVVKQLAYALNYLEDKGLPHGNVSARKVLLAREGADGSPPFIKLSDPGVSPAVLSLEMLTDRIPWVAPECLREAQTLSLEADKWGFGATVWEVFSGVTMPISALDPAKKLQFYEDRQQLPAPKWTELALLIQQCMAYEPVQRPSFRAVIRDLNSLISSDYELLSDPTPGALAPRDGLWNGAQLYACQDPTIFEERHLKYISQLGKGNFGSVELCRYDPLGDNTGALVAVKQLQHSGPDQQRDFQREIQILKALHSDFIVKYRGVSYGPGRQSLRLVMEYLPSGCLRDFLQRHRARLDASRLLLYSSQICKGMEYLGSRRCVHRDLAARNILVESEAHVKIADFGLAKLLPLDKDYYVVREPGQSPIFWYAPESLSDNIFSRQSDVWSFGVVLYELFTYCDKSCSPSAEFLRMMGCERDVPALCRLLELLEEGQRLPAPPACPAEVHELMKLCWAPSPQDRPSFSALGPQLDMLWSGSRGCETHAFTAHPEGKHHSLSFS

Measured: % residual kinase activity

Phosphatidylinositol 4,5-bisphosphate 3-kinase catalytic subunit gamma isoform (Homo sapiens), sequence (P48736 whole entry, looked up, canonical isoform): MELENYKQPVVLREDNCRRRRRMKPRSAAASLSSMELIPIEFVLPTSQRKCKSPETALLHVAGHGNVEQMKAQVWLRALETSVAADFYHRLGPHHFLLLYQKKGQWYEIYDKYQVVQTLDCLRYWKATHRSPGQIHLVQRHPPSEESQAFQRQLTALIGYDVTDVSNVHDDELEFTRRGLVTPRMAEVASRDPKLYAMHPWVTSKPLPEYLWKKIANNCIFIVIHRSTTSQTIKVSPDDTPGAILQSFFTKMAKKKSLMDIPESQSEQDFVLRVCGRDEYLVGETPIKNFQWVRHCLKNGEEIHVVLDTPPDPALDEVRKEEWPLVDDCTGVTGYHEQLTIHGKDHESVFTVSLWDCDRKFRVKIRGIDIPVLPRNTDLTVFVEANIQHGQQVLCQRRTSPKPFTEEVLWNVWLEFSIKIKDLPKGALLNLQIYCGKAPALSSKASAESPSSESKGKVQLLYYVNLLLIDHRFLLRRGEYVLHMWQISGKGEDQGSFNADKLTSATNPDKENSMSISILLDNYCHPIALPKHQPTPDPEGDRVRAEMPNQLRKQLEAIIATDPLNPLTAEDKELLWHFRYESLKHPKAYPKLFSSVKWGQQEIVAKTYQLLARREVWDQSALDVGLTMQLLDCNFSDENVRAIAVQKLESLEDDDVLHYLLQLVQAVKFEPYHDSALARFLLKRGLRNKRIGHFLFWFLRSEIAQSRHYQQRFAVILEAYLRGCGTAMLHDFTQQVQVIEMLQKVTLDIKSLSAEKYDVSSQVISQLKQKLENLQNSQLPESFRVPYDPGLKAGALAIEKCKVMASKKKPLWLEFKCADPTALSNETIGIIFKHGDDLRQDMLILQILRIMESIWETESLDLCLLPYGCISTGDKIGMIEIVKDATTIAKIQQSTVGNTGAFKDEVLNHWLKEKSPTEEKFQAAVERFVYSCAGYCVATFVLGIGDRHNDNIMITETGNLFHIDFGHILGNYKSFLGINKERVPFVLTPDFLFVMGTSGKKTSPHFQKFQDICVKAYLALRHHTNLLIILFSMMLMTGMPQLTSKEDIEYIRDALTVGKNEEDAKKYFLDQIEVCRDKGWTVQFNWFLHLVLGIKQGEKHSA
MAP kinase-activated protein kinase 3 (Homo sapiens), sequence (Q16644 whole entry, looked up): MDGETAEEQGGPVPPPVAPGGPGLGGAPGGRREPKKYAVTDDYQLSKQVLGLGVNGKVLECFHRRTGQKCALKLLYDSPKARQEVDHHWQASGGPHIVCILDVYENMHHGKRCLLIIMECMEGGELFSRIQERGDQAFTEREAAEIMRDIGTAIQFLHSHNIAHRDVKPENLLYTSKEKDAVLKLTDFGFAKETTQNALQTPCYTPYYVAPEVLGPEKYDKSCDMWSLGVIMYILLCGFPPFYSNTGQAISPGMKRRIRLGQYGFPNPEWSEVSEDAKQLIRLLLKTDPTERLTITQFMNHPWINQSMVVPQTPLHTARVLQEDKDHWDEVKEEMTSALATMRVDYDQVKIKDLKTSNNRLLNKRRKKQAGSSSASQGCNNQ
RAC-gamma serine/threonine-protein kinase (Homo sapiens), sequence (Q9Y243 whole entry): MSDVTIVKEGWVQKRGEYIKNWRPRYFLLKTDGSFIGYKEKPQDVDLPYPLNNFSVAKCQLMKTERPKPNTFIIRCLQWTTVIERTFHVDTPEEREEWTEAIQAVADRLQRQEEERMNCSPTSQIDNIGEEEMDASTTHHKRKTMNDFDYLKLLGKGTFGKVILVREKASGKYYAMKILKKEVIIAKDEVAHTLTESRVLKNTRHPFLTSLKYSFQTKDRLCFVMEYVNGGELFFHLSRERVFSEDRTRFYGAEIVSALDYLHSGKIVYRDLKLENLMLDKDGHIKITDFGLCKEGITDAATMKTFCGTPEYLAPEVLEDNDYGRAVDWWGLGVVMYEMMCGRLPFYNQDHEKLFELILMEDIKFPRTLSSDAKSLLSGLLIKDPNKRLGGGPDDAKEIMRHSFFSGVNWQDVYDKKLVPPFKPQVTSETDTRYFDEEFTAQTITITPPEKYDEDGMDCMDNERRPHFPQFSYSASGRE
Cyclin-dependent kinase 5/CDK5 activator 1 (Homo sapiens), sequence (Q00535 whole entry): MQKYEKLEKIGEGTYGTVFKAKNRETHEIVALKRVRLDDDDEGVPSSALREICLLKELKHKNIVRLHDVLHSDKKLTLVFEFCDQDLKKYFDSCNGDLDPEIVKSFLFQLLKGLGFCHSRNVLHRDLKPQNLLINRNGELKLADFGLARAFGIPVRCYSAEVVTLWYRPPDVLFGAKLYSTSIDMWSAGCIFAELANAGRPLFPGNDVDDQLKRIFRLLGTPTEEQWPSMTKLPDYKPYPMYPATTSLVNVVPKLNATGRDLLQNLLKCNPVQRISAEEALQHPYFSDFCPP
Cyclin-dependent kinase 5/CDK5 activator 1 (Homo sapiens), sequence (Q15078 99-307 partner limits assumed): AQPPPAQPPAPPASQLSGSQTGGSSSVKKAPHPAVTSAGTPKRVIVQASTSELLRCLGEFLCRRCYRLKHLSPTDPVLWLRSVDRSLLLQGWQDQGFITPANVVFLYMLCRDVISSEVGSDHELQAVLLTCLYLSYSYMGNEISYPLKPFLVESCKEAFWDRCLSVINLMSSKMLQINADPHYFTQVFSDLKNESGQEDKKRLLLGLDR
Tyrosine-protein kinase Fyn (Homo sapiens), sequence (P06241 2-537 limits assumed): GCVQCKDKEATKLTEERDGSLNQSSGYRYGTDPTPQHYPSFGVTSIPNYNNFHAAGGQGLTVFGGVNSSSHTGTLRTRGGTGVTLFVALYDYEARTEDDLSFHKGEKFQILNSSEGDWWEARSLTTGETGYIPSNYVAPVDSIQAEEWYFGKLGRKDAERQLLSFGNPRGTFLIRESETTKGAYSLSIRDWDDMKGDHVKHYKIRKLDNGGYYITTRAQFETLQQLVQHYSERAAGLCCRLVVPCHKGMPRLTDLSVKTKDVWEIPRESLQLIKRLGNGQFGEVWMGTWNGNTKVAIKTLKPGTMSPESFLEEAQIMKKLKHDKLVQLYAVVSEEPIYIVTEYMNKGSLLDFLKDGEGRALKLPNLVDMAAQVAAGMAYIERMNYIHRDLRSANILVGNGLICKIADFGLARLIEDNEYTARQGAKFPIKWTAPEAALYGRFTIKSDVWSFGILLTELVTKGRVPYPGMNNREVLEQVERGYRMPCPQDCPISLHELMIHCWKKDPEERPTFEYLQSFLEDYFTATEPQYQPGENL
Tyrosine-protein kinase JAK1 (Homo sapiens), sequence (P23458 whole entry): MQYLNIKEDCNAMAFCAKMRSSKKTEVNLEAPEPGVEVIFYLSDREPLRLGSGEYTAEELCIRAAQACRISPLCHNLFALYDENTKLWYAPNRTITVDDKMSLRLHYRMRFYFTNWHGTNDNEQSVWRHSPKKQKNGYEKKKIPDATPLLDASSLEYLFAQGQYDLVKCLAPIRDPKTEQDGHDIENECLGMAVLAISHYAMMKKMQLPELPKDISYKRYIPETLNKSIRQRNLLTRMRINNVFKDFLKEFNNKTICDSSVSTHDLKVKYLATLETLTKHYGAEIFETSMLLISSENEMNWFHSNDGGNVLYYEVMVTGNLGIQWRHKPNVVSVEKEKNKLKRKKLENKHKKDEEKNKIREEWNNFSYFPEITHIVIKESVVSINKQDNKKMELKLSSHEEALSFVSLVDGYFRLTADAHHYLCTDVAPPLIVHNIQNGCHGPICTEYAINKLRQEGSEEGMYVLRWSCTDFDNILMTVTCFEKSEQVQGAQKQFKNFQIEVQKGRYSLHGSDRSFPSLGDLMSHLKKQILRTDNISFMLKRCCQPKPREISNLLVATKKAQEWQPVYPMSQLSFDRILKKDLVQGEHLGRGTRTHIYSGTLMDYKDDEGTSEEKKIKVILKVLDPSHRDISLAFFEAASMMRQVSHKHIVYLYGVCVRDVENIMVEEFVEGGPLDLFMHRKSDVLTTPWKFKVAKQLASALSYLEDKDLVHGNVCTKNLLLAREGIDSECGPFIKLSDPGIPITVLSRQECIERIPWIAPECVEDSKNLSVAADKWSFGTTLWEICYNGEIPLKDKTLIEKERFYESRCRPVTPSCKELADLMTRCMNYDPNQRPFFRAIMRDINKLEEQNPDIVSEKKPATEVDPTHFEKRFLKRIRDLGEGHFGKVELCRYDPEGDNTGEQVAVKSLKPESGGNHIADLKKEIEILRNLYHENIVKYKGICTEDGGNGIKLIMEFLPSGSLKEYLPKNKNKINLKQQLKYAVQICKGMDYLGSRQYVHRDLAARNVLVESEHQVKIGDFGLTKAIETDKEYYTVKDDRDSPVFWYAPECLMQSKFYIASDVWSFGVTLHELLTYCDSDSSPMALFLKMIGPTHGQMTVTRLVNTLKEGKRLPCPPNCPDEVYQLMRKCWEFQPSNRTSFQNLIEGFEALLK

CN1CCN(c2cnc3c(C4CCN(C(=O)c5ccc(OC(F)(F)F)cc5N)CC4)ncnc3c2)CC1 [BAY-885]
inactive: [1] 118% | [2] 116% | [3] 120% | [4] 102% | [5] 100% | [6] 107% | [7] 96% | [8] 99% | [9] 129% | [10] 113% | [11] 106% | [12] 113% | [13] 113% | [14] 104% | [15] 110% | [16] 107% | [17] 98% | [18] 118%
